The results in this text go back to patent US6921530B1, “Low dose IL-2 for potentiation of immunity” (Cornell Research Foundation, Inc., priority 1999, dated 2005).

Assay [1] relates to circulating lymphocyte subsets (CD4+ T cells, CD8+ T cells, NK cells). As to the kind of experiment: Circulating lymphocyte subsets by flow cytometry in HIV-positive subjects on PART + IL-2 and after cessation of PART. The format is in vivo, human. The text has this: Conditions for patient exclusion included a) uncontrolled infection; b) concurrent therapy with glucocorticoids or other immunosuppressive agents; or c) concurrent immunomodulating agents, eg. IFN-a, granulocyte colony stimulating factor (G-CSF), granulocyte-monocyte colony stimulating factor (GM-CSF).
Prior to the discontinuation of PART, at least 3 months of daily, low-dose (250,000 U/m^2) subcutaneous IL-2 (R-Met-HU IL2-Ala-125, Amgen, Thousand Oaks, Calif.) immuno-stimulatory therapy were administered as described in Jacobsen, E L et al., Proc Natl Acad Sci USA 93:10405-10 (1996). In addition, to ensure the safest possible immune parameters for the discontinuation of PART, IL-2 immuno-stimulation was continued after the anti-viral drugs were withdrawn.
Subsequent to the discontinuation of PART, plasma HIV was monitored twice weekly. Plasma HIV RNA concentrations were determined on EDTA anti-coagulated plasma samples, which were frozen (−70° C.) within 3 hours of phlebotomy. Samples were assayed by Bayer Diagnostics, Emeryville, Calif. Lymphocyte subsets were determined on fresh blood samples by flow cytometry using subset-specific monoclonal antibodies and a FACSCaliber from Becton-Dickinson, San, Jose, Calif. by standard procedures according to the manufacturer.
For 3 months prior to the discontinuation of PART, the concentration of circulating lymphocyte subsets were monitored monthly (see Table 1). Subsequent to the discontinuation of PART, the lymphocytes were monitored weekly. Whole blood (1 ml) was activated in vitro with HIV recombinant p55 antigen (Chiron Corp., Emeryville, Calif., 1 μg/ml) for 6 hours at 37 C. During the last 4 hours, Brefeldin A (Sigma, Inc., St. Louis, Mo., […]) was added to retard cytokine secretion. At the end of the incubation, EDTA (Sigma, 100 mM) was added, the blood was vortexed vigorously for 10 seconds, and the erythrocytes were lysed using 10 ml FACSLysing Reagent. After a 10 minute incubation the leukocytes were separated by centrifugation (500×g, 10 min), then resuspended and frozen (−70 C) in 2 ml R.P.M.I. 1640 tissue cuture medium containing 10% fetal calf serum and 10% dimethyl sulfoxide. Prior to labeling with monoclonal antibodies, the cells were thawed, centrifuged (500×g, 10 min) and permeabilized using FACSPerm. After washing with 3 ml phosphate buffered saline (PBS), the cells were incubated with fluorochrome-conjugated monoclonal antibodies for 30 minutes at room temperature in the dark. The cells were then washed 1× with PBS, and then fixed with 0.5% paraformaldehyde and analyzed by flow cytometry.
In general terms: In flow cytometry, cells or beads pass a laser one at a time.

The subject of assay [2] is HIV p24-reactive T cells and NK cells. The assay can be described thus: Activation markers after 18 h whole blood activation with HIV p24 (flow cytometry). It counts as cell-based, human. The source says:
FIG. 4 Expression of activation markers of CD4+ T cells and CD4− T cells after stimulation with HIV p24. Vertical axis=CD4, upper row horizontal axis=CD69, middle row=CD25, lower row=IFN-γ. A=subject #1, B=subject #2, C=subject #3, and D=subject #8. Numbers in right quadrants represent the % of CD4+ (upper) and CD4− (lower) T cells that reacted with the monoclonal antibody directed against the respective activation marker. The numbers in the column on the right represent the mean±SEM of the percentage positive cells from all 4 subjects. The values for control cultures, which received monoclonal antibodies reactive with accessory molecules alone (CD28 & CD49d) without HIV p24, were subtracted from the plots and percentages shown.
To identify activated cells, whole blood (1 ml) was cultured for 18 hours with the co-stimulatory antibodies anti-CD28 and anti-CD49d, and HIV p24 antigen (1 μg/ml, Research Diagnostics, Inc., Flanders N.J.) and cytomegalovirus antigen (1 μg/ml, Advanced Biotechnologies, Columbia, Md.). At the end of the incubaton the erythrocytes were lysed using FACSLysing Solution™ (9 ml). The cells were then either frozen at −70° C. in 2 ml RPMI 1640 medum with 10% Dimethyl Sulfoxide (Sigma, St. Louis, Mo.) or permeabilized with FACSPerm Solution™ (2 ml). Thereafter the cells were reacted with anti-CD3-PerCP, anti-CD4-PE, anti-CD8-PE, anti-CD56-PE, anti-CD69-FITC, anti-CD25-FITC, and anti-IFN-γ-FITC. All antibodies were from Becton Dickinson.
FIG. 5 Expression of interferon γ (IFN-γ) by CD-3+ and CD3− lymphocytes. A. Cells examined for size and granularity (left panel), CD3 expression (middle panel), and CD8 expression (right panel). B. Expression of IFN-γ and CD56 by CD3+ cells (gate R2), according to CD8− cells (gate R4, left panels), CD8 dim (gate R5, middle panels), and CD8+ (gate R6, right panels). Control cultures stimulated only with accessory antibodies (upper panels, HIV p24-stimulated cultures (lower panels). C. Expression of IFN-γ and CD56 by CD3− cells (gate R3), according to CD8− cells (gate R4, left panels), CD8dim (gate 5, middle panels) and CD8+ (gate R6, right panels). Control cultures stimulated only with accessory antibodies (upper panes, antiCD28, CD49d), HIV p-24-stimulated cultures (lower panels). Numbers in upper quadrants represent the percentages of CD56− and CD56+ cells that also reacted with anti-IFN-γ. To examine the activation of T cells and NK cells together, the cells were reacted with anti-CD3-PerCP, anti-CD8-PE, and anti-CD56-FITC, together with anti-IFN-γ-APC, all from Becton Dickinson.
To examine the HIV specific reactivity of CD4+ T cells, we performed an 18-hour activation of whole blood with HIV p24 followed by a 4-hour incubation with Brefeldin A to inhibit secretion. Subsequently, the cells were examined by flow cytometry after reaction with fluorochrome-conjugated monoclonal antibodies. Shown in FIG. 4 are the results from experiments performed with blood from the subjects who underwent a second treatment interruption when they had experienced the second CD8+ T lymphocytosis and had reached a stable concentration of plasma virus. Only CD3+ T cells were examined. […] In addition, subjects #1, 2 and 8 also expressed IFN-γ (mean 2.0%±1.2% SEM), while subject #3 had reactivity just above the limits of detection (0.2%). Also depicted in FIG. 4 are the results of the activation markers expressed by CD4− T cells, which are all CD8+, as determined by direct analysis for CD8 expression. There were also CD4− T cells stimulated to express CD69 (mean 3.2%±2.1% SEM) and CD25 (mean 1.9%±0.9% SEM). Moreover, CD4− T cells from subjects #1 and 2 also expressed IFN-γ, whereas the cells from subject 3 and 8 were at the level of detection (0.1%).
It was unexpected to find CD3+, CD4− cells capable of expressing surface markers of activation, and as well, producing detectable intracellular IFN-γ after HIV p24 stimulation. […]

[3] abbreviates: 4 subjects after second treatment interruption, mean ± SEM.
Setting [4] is: subject #1, HIV antigen activated.

Where “and” joins values, the source holds several entries; their conditions need not be identical. Identical values can stand only once.

For the substance Interleukin-2 [IL-2], the “CD8+ T cell concentration as % of baseline levels” value in assay [1] (after 2 weeks of viremia) was > 200 % of baseline. In assay [1] (after cessation of PART), the “mean peak increase of CD8+ T cells, group with more rapid viral decline” value was 350 % of baseline and the “mean peak increase of CD8+ T cells, group with slower viral decline” value is given as 150 % of baseline. The “change of circulating NK cells” value in assay [1] (entire interval after discontinuation of PART) is “did not change significantly”. Further, in assay [1] (just after the peak of viremia, after discontinuation of PART), the “decrease of circulating CD4+ T cells compared with baseline” value was determined as 24%. Further, the “fold increase of CD8+ T cells from baseline” value in assay [1] (subject D3) came to 8 fold. Also, the “CD8+ T cells at peak” value in assay [1] (subject D3, coincident with drop in plasma HIV RNA) is 4,669 cells/mm3. Further, in assay [2] (setting [3]), the “CD4+ T cells stimulated by HIV p24 to express CD25” value is 15.5%±2.1% and 15.5%; the “CD4+ T cells stimulated by HIV p24 to express CD69” value is 4.3%±0.45; the “CD4− T cells stimulated by HIV p24 to express CD25” value is 1.9%±0.9%; the “CD4− T cells stimulated by HIV p24 to express CD69” value is 3.2%±2.1%. Further, the “CD4− T cells expressing IFN-γ” value in assay [2] (subject 3 and 8, at the level of detection) was found to be 0.1%. Further, in assay [2] (setting [4]), the “CD3-, CD8-dim cells that are CD56+ producing IFN-γ” value was determined as 28% and the “CD3−, CD8− cells that express CD56 producing IFN-γ” value is reported as 33%. In assay [2] (subject #3, just above the limits of detection), the “CD4+ T cells stimulated by HIV p24 to express IFN-γ” value came out at 0.2%. Also, in assay [2] (subjects #1, 2 and 8, mean ± SEM), the “CD4+ T cells stimulated by HIV p24 to express IFN-γ” value was 2.0%±1.2%.
